Where two headings read alike, the source gives them in different places.
Target: T1, PDE4B2 (Homo sapiens, UniProt Q07343)
T1 construct: purchased BPS bioscience
Assay: In vitro PDE4B2 enzyme inhibitory activity (AMP-Glo)
Format: biochemical

[1] = PDE4B2 enzyme inhibition, read-out: PDE4B2 IC50
[2] = read-out: IC50 values of PDE4B2 enzyme inhibition

T1 sequence (Q07343 1-564 isoform Q07343-2): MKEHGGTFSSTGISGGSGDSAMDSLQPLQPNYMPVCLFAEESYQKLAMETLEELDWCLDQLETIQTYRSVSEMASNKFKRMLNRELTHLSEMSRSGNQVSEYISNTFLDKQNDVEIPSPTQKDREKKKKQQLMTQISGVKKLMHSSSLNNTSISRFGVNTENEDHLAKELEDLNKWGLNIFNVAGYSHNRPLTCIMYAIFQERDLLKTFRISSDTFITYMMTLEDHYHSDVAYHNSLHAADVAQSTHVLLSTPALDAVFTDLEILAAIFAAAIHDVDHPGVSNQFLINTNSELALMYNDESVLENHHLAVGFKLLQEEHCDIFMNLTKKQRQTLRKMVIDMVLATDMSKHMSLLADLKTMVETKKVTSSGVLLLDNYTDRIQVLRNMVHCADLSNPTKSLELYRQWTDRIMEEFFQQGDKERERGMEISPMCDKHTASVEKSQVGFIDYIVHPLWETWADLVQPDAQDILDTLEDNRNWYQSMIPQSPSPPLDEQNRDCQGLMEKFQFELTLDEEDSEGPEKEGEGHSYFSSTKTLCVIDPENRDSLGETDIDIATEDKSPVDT

Row | SMILES | IC50 [1] | IC50 [2]
1 | [O-][S+]1CCc2nc(N3CC(O)(c4ccc(Cl)cc4)C3)nc(NC3(CO)CCC3)c21 (racemic) [Compound 1, (R/S)-2-(3-(4-chlorophenyl)-3-hydroxyazetidin-1-yl)-4-((1-(hydroxymethyl)cyclobutyl)amino)-6,7-dihydrothieno[3,2-d]pyrimidine 5-oxide] | 2 to 5 nM | 
2 | COc1ccc(C2(O)CN(c3nc4c(c(NC5(CO)CCC5)n3)[S+]([O-])CC4)C2)cc1 (racemic) [Compound 2, (R/S)-2-(3-hydroxy-3-(4-methoxyphenyl)azetidin-1-yl)-4-((1-(hydroxymethyl)cyclobutyl)amino)-6,7-dihydrothieno[3,2-d]pyrimidine 5-oxide] | 2 to 5 nM | 
3 | COc1cc(C2(O)CN(c3nc4c(c(NC5(CO)CCC5)n3)[S+]([O-])CC4)C2)ccc1Cl (racemic) [Compound 3, (R/S)-2-(3-(4-chloro-3-methoxyphenyl)-3-hydroxyazetidin-1-yl)-4-((1-(hydroxymethyl)cyclobutyl)amino)-6,7-dihydrothieno[3,2-d]pyrimidine 5-oxide] | ≤ 2 nM | 
4 | COc1ccc(C2(O)CN(c3nc4c(c(NC5(CO)CCC5)n3)[S+]([O-])CC4)C2)cc1Cl (racemic) [Compound 4, (R/S)-2-(3-(3-chloro-4-methoxyphenyl)-3-hydroxyazetidin-1-yl)-4-((1-(hydroxymethyl)cyclobutyl)amino)-6,7-dihydrothieno[3,2-d]pyrimidine 5-oxide] | 2 to 5 nM | 
5 | [O-][S+]1CCc2nc(N3CC(O)(c4ccc(C(F)(F)F)cc4)C3)nc(NC3(CO)CCC3)c21 (racemic) [Compound 7, (R/S)-2-(3-hydroxy-3-(4-(trifluoromethyl)phenyl)azetidin-1-yl)-4-((1-(hydroxymethyl)cyclobutyl)amino)-6,7-dihydrothieno[3,2-d]pyrimidine 5-oxide] | 2 to 5 nM | 
6 | COc1ccc(C2(O)CN(c3nc4c(c(Nc5ccc(CC(=O)O)cc5)n3)[S+]([O-])CC4)C2)cc1Cl (racemic) [Compound 8, (R/S)-2-(4-((2-(3-(3-chloro-4-methoxyphenyl)-3-hydroxyazetidin-1-yl)-5-oxido-6,7-dihydrothieno[3,2-d]pyrimidin-4-yl)amino)phenyl)acetic acid] | 2 to 5 nM | 
7 | [O-][S+]1CCc2nc(N3CC=C(c4ccc(OC(F)F)cc4)C3)nc(NC3(CO)CCC3)c21 (racemic) [Compound 14, (R/S)-2-(3-(4-(difluoromethoxy)phenyl)-2,5-dihydro-1H-pyrrol-1-yl)-4-((1-(hydroxymethyl)cyclobutyl)amino)-6,7-dihydrothieno[3,2-d]pyrimidine 5-oxide] | 2 to 5 nM | 
8 | [O-][S+]1CCc2nc(C3=CCN(c4ncc(Cl)cn4)CC3)nc(NC3(CO)CCC3)c21 (racemic) [Compound 16, (R/S)-2-(1-(5-chloropyrimidin-2-yl)-1,2,3,6-tetrahydropyridin-4-yl)-4-((1-(hydroxymethyl)cyclobutyl)amino)-6,7-dihydrothieno[3,2-d]pyrimidine 5-oxide] | 2 to 5 nM | 
9 | COc1ccc2c(c1)CN(c1nc3c(c(NC4(CO)CCC4)n1)[S+]([O-])CC3)C2 (racemic) [Compound 26, (R/S)-4-((1-(hydroxymethyl)cyclobutyl)amino)-2-(5-methoxyisoindolin-2-yl)-6,7-dihydrothieno[3,2-d]pyrimidine 5-oxide] | 2 to 5 nM | 
10 | N#Cc1ccc2c(c1)CN(c1nc3c(c(NC4(CO)CCC4)n1)[S+]([O-])CC3)C2 (racemic) [Compound 27, (R/S)-2-(4-((1-(hydroxymethyl)cyclobutyl)amino)-5-oxido-6,7-dihydrothieno[3,2-d]pyrimidin-2-yl)isoindoline-5-carbonitrile] | 2 to 5 nM | 
11 | CC(C)(O)c1ccc2c(c1)CN(c1nc3c(c(NC4(CO)CCC4)n1)[S+]([O-])CC3)C2 (racemic) [Compound 29, (R/S)-4-((1-(hydroxymethyl)cyclobutyl)amino)-2-(5-(2-hydroxypropan-2-yl)isoindolin-2-yl)-6,7-dihydrothieno[3,2-d]pyrimidine 5-oxide] | ≤ 2 nM | 
12 | CS(=O)(=O)Nc1ccc2c(c1)CN(c1nc3c(c(NC4(CO)CCC4)n1)[S+]([O-])CC3)C2 (racemic) [Compound 31, (R/S)—N-(2-(4-((1-(hydroxymethyl)cyclobutyl)amino)-5-oxido-6,7-dihydrothieno[3,2-d]pyrimidin-2-yl)isoindolin-5-yl)methanesulfonamide] | 2 to 5 nM | 

Other lines, results leading:

Row | IC50 [1] | IC50 [2] | SMILES
13 | 2 to 5 nM |  | COc1ccc2c(c1Cl)CN(c1nc3c(c(NC4(CO)CCC4)n1)[S+]([O-])CC3)C2 (racemic) [Compound 35, (R/S)-2-(4-chloro-5-methoxyisoindolin-2-yl)-4-((1-(hydroxymethyl)cyclobutyl)amino)-6,7-dihydrothieno[3,2-d]pyrimidine 5-oxide]
14 | ≤ 2 nM | < 1 nM | COc1cc(C2(OC)CN(c3nc4c(c(NC5(CO)CCC5)n3)[S+]([O-])CC4)C2)ccc1Cl (racemic) [Compound 79, (R/S)-2-(3-(4-chloro-3-methoxyphenyl)-3-methoxyazetidin-1-yl)-4-((1-(hydroxymethyl)cyclobutyl)amino)-6,7-dihydrothieno[3,2-d]pyrimidine 5-oxide]
15 | 2 to 5 nM |  | [O-][S+]1CCc2nc(N3CC(O)(c4ccc(Cl)c(F)c4)C3)nc(NC3(CO)CCC3)c21 (racemic) [Compound 80, (R/S)-2-(3-(4-chloro-3-fluorophenyl)-3-hydroxyazetidin-1-yl)-4-((1-(hydroxymethyl)cyclobutyl)amino)-6,7-dihydrothieno[3,2-d]pyrimidine 5-oxide]
16 | 2 to 5 nM |  | COc1cc(C2(O)CN(c3nc4c(c(NC5CCOCC5)n3)[S+]([O-])CC4)C2)ccc1Cl (racemic) [Compound 81, (R/S)-2-(3-(4-chloro-3-methoxyphenyl)-3-hydroxyazetidin-1-yl)-4-((tetrahydro-2H-pyran-4-yl)amino)-6,7-dihydrothieno[3,2-d]pyrimidine 5-oxide]
17 | ≤ 2 nM | < 1 nM | COC1(c2ccc(Cl)c(F)c2)CN(c2nc3c(c(NC4(CO)CCC4)n2)[S+]([O-])CC3)C1 (racemic) [Compound 82, (R/S)-2-(3-(4-chloro-3-fluorophenyl)-3-methoxyazetidin-1-yl)-4-((1-(hydroxymethyl)cyclobutyl)amino)-6,7-dihydrothieno[3,2-d]pyrimidine 5-oxide]
18 | ≤ 2 nM | < 1 nM | COC1(c2ccc(Cl)cc2)CN(c2nc3c(c(NC4(CO)CCC4)n2)[S+]([O-])CC3)C1 (racemic) [Compound 83, (R/S)-2-(3-(4-chlorophenyl)-3-methoxyazetidin-1-yl)-4-((1-(hydroxymethyl)cyclobutyl)amino)-6,7-dihydrothieno[3,2-d]pyrimidine 5-oxide]
19 | ≤ 2 nM |  | CC(C)(O)c1ccc2c(c1)CN(c1nc3c(c(NC4CCOCC4)n1)[S+]([O-])CC3)C2 (racemic) [Compound 84, (R/S)-2-(5-(2-hydroxypropan-2-yl)isoindolin-2-yl)-4-((tetrahydro-2H-pyran-4-yl)amino)-6,7-dihydrothieno[3,2-d]pyrimidine 5-oxide]
20 | ≤ 2 nM |  | [O-][S+]1CCc2nc(N3Cc4ccc(Cl)cc4C3)nc(NC3CCOCC3)c21 (racemic) [Compound 85, (R/S)-2-(5-chloroisoindolin-2-yl)-4-((tetrahydro-2H-pyran-4-yl)amino)-6,7-dihydrothieno[3,2-d]pyrimidine 5-oxide]
21 | ≤ 2 nM | < 1 nM | COC1(c2ccc(Cl)c(F)c2)CN(c2nc3c(c(NC4CCOCC4)n2)[S+]([O-])CC3)C1 (racemic) [Compound 86, (R/S)-2-(3-(4-chloro-3-fluorophenyl)-3-methoxyazetidin-1-yl)-4-((tetrahydro-2H-pyran-4-yl)amino)-6,7-dihydrothieno[3,2-d]pyrimidine 5-oxide]
22 | 2 to 5 nM |  | [O-][S+]1CCc2nc(N3Cc4ccc(OC(F)F)cc4C3)nc(NC3(CO)CCC3)c21 (racemic) [Compound 87, (R/S)-2-(5-(difluoromethoxy)isoindolin-2-yl)-4-((1-(hydroxymethyl)cyclobutyl)amino)-6,7-dihydrothieno[3,2-d]pyrimidine 5-oxide]
23 | ≤ 2 nM | < 1 nM | COC1(c2ccc(Cl)cc2)CN(c2nc3c(c(NC4CCOCC4)n2)[S+]([O-])CC3)C1 (racemic) [Compound 88, (R/S)-2-(3-(4-chlorophenyl)-3-methoxyazetidin-1-yl)-4-((tetrahydro-2H-pyran-4-yl)amino)-6,7-dihydrothieno[3,2-d]pyrimidine 5-oxide]
24 | 2 to 5 nM |  | [O-][S+]1CCc2nc(N3Cc4ccc(C(F)F)cc4C3)nc(NC3(CO)CCC3)c21 (racemic) [Compound 91, (R/S)-2-(5-(difluoromethyl)isoindolin-2-yl)-4-((1-(hydroxymethyl)cyclobutyl)amino)-6,7-dihydrothieno[3,2-d]pyrimidine 5-oxide]
25 | ≤ 2 nM | < 1 nM | [2H]C([2H])([2H])OC1(c2ccc(Cl)cc2)CN(c2nc3c(c(NC4(CO)CCC4)n2)[S+]([O-])CC3)C1 (racemic) [Compound 92, (R/S)-2-(3-(4-chlorophenyl)-3-(methoxy-d3)azetidin-1-yl)-4-((1-(hydroxymethyl)cyclobutyl)amino)-6,7-dihydrothieno[3,2-d]pyrimidine 5-oxide]
26 | ≤ 2 nM | < 1 nM | [2H]C([2H])([2H])OC1(c2ccc(Cl)cc2)CN(c2nc3c(c(NC4CCOCC4)n2)[S+]([O-])CC3)C1 (racemic) [Compound 94, (R/S)-2-(3-(4-chlorophenyl)-3-(methoxy-d3)azetidin-1-yl)-4-((tetrahydro-2H-pyran-4-yl)amino)-6,7-dihydrothieno[3,2-d]pyrimidine 5-oxide]
27 | ≤ 2 nM | < 1 nM | COc1ccc(C2(OC)CN(c3nc4c(c(NC5(CO)CCC5)n3)[S+]([O-])CC4)C2)cc1 (racemic) [Compound 100, (R/S)-4-((1-(hydroxymethyl)cyclobutyl)amino)-2-(3-methoxy-3-(4-methoxyphenyl)azetidin-1-yl)-6,7-dihydrothieno[3,2-d]pyrimidine 5-oxide]

Reference: patent US20260242393A1, “Preparation Method for and Use of Dihydrothienopyrimidine Derivative” (Innovstone Therapeutics Limited, priority 2023, published 2026)
